PubChem BioAssay AID2060885 (Molecular Pharmacology Branch, DTP, NCI, 2025)

Test system: NCI-H23 complex spheroids with HUVEC/MSC, viability
Assay: Anticancer human tumor NCI-H23 cell line growth inhibition [RAS];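 note: spheroids exposed to compound for 7 days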;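 for viability, T/C: 100% = DMSO vehicle control viability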
Settings: for IC50: curve of first compound; for viability, T/C: stronger effect = lower value
Summary of the method: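 Agents were tested in combination matrices in half-log decrements from a top concentration at or near clinical Cmax (10 microM if undetermined). Targets were multi-cell spheroids of tumour lines plus HUVEC and MSC stromal cells.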

[1] = second compound 0.000949 µM, first compound 0.0316 µM
[2] = second compound 0.000949 µM, first compound 0.1 µM
[3] = second compound 0.000949 µM, first compound 0.316 µM
[4] = second compound 0.000949 µM, first compound 1 µM
[5] = second compound 0.000949 µM, first compound 3.16 µM
[6] = second compound 0.000949 µM, first compound 10 µM
[7] = second compound 0.003 µM, first compound 0.0316 µM
[8] = second compound 0.003 µM, first compound 0.1 µM
[9] = second compound 0.003 µM, first compound 0.316 µM
[10] = second compound 0.003 µM, first compound 1 µM
[11] = second compound 0.003 µM, first compound 3.16 µM
[12] = second compound 0.003 µM, first compound 10 µM
[13] = second compound 0.00949 µM, first compound 0.0316 µM
[14] = second compound 0.00949 µM, first compound 0.1 µM
[15] = second compound 0.00949 µM, first compound 0.316 µM
[16] = second compound 0.00949 µM, first compound 1 µM
[17] = second compound 0.00949 µM, first compound 3.16 µM
[18] = second compound 0.00949 µM, first compound 10 µM
[19] = second compound 0.03 µM, first compound 0.0316 µM
[20] = second compound 0.03 µM, first compound 0.1 µM
[21] = second compound 0.03 µM, first compound 0.316 µM
[22] = second compound 0.03 µM, first compound 1 µM
[23] = second compound 0.03 µM, first compound 3.16 µM
[24] = second compound 0.03 µM, first compound 10 µM
[25] = second compound 0.0949 µM, first compound 0.0316 µM
[26] = second compound 0.0949 µM, first compound 0.1 µM
[27] = second compound 0.0949 µM, first compound 0.316 µM
[28] = second compound 0.0949 µM, first compound 1 µM
[29] = second compound 0.0949 µM, first compound 3.16 µM
[30] = second compound 0.0949 µM, first compound 10 µM
[31] = second compound 0.3 µM, first compound 0.0316 µM
[32] = second compound 0.3 µM, first compound 0.1 µM
[33] = second compound 0.3 µM, first compound 0.316 µM
[34] = second compound 0.3 µM, first compound 1 µM
[35] = second compound 0.3 µM, first compound 3.16 µM
[36] = second compound 0.3 µM, first compound 10 µM

CC(=O)OC12COC1CC(O)C1(C)C(=O)C(O)C3=C(C)C(OC(=O)C(O)C(NC(=O)OC(C)(C)C)c4ccccc4)CC(O)(C(OC(=O)c4ccccc4)C21)C3(C)C (stereo unspecified) + CCn1c(-c2cccnc2C(C)OC)c2c3cc(ccc31)N1CCOC(CC(NC(=O)C(C(C)C)N(C)C(=O)C3(F)CCN(C(=O)C#CC(C)(C)N(C)C)CC3)C(=O)N3CCCC(N3)C(=O)OCC(C)(C)C2)C1
IC50 (second compound 0.000949 µM): < 31.6 nM | IC50 (second compound 0.003 µM): < 31.6 nM | IC50 (second compound 0.00949 µM): < 31.6 nM | IC50 (second compound 0.03 µM): < 31.6 nM | IC50 (second compound 0.0949 µM): < 31.6 nM | IC50 (second compound 0.3 µM): < 31.6 nM | viability, T/C [1]: 10.4% | viability, T/C [2]: 12.4% | viability, T/C [3]: 9.29% | viability, T/C [4]: 12.5% | viability, T/C [5]: 17.6% | viability, T/C [6]: 17.5% | viability, T/C [7]: 11.3% | viability, T/C [8]: 10.6% | viability, T/C [9]: 10.2% | viability, T/C [10]: 11.5% | viability, T/C [11]: 17% | viability, T/C [12]: 14.2% | viability, T/C [13]: 9.65% | viability, T/C [14]: 8.65% | viability, T/C [15]: 11.5% | viability, T/C [16]: 11% | viability, T/C [17]: 12.8% | viability, T/C [18]: 15.8% | viability, T/C [19]: 9.84% | viability, T/C [20]: 8.29% | viability, T/C [21]: 10.2% | viability, T/C [22]: 9.41% | viability, T/C [23]: 11.5% | viability, T/C [24]: 16.5% | viability, T/C [25]: 8.35% | viability, T/C [26]: 8.9% | viability, T/C [27]: 8.97% | viability, T/C [28]: 9.36% | viability, T/C [29]: 9.42% | viability, T/C [30]: 16.1% | viability, T/C [31]: 6.76% | viability, T/C [32]: 6.43% | viability, T/C [33]: 7.66% | viability, T/C [34]: 8.04% | viability, T/C [35]: 9.25% | viability, T/C [36]: 12.2%

NC1c2ccccc2OC12CCN(c1cnc3c(N4CCCc5ncccc54)n[nH]c3n1)CC2 (stereo unspecified) + CCn1c(-c2cccnc2C(C)OC)c2c3cc(ccc31)N1CCOC(CC(NC(=O)C(C(C)C)N(C)C(=O)C3(F)CCN(C(=O)C#CC(C)(C)N(C)C)CC3)C(=O)N3CCCC(N3)C(=O)OCC(C)(C)C2)C1
IC50 (second compound 0.000949 µM): < 31.6 nM | IC50 (second compound 0.003 µM): < 31.6 nM | IC50 (second compound 0.00949 µM): < 31.6 nM | IC50 (second compound 0.03 µM): < 31.6 nM | IC50 (second compound 0.0949 µM): < 31.6 nM | IC50 (second compound 0.3 µM): < 31.6 nM | viability, T/C [1]: 19.7% | viability, T/C [2]: 16.4% | viability, T/C [3]: 10.6% | viability, T/C [4]: 9.5% | viability, T/C [5]: 7.93% | viability, T/C [6]: 5.17% | viability, T/C [7]: 20.7% | viability, T/C [8]: 15.8% | viability, T/C [9]: 11.7% | viability, T/C [10]: 8.99% | viability, T/C [11]: 6.81% | viability, T/C [12]: 5.13% | viability, T/C [13]: 18.1% | viability, T/C [14]: 15% | viability, T/C [15]: 11.4% | viability, T/C [16]: 9.87% | viability, T/C [17]: 5.94% | viability, T/C [18]: 5.23% | viability, T/C [19]: 17.8% | viability, T/C [20]: 14.9% | viability, T/C [21]: 11.8% | viability, T/C [22]: 8.83% | viability, T/C [23]: 5.09% | viability, T/C [24]: 5.86% | viability, T/C [25]: 15% | viability, T/C [26]: 12.7% | viability, T/C [27]: 10.3% | viability, T/C [28]: 7.47% | viability, T/C [29]: 5.66% | viability, T/C [30]: 5.23% | viability, T/C [31]: 16.5% | viability, T/C [32]: 11.5% | viability, T/C [33]: 9.55% | viability, T/C [34]: 6.6% | viability, T/C [35]: 6.48% | viability, T/C [36]: 5.71%

Nc1ccn(C2OC(CO)C(O)C2(F)F)c(=O)n1 (stereo unspecified) + CCn1c(-c2cccnc2C(C)OC)c2c3cc(ccc31)N1CCOC(CC(NC(=O)C(C(C)C)N(C)C(=O)C3(F)CCN(C(=O)C#CC(C)(C)N(C)C)CC3)C(=O)N3CCCC(N3)C(=O)OCC(C)(C)C2)C1
IC50 (second compound 0.000949 µM): < 3.16 nM | IC50 (second compound 0.003 µM): < 3.16 nM | IC50 (second compound 0.00949 µM): < 3.16 nM | IC50 (second compound 0.03 µM): < 3.16 nM | IC50 (second compound 0.0949 µM): < 3.16 nM | IC50 (second compound 0.3 µM): < 3.16 nM | viability, T/C (second compound 0.000949 µM, first compound 0.00316 µM): 11.4% | viability, T/C (second compound 0.000949 µM, first compound 0.01 µM): 1.89% | viability, T/C [1]: 1.33% | viability, T/C [2]: 1.32% | viability, T/C [3]: 1.35% | viability, T/C [4]: 1.46% | viability, T/C (second compound 0.003 µM, first compound 0.00316 µM): 12.7% | viability, T/C (second compound 0.003 µM, first compound 0.01 µM): 1.78% | viability, T/C [7]: 1.61% | viability, T/C [8]: 1.5% | viability, T/C [9]: 1.63% | viability, T/C [10]: 2.39% | viability, T/C (second compound 0.00949 µM, first compound 0.00316 µM): 14.5% | viability, T/C (second compound 0.00949 µM, first compound 0.01 µM): 1.69% | viability, T/C [13]: 2.29% | viability, T/C [14]: 1.8% | viability, T/C [15]: 1.79% | viability, T/C [16]: 1.41% | viability, T/C (second compound 0.03 µM, first compound 0.00316 µM): 12.3% | viability, T/C (second compound 0.03 µM, first compound 0.01 µM): 1.86% | viability, T/C [19]: 1.31% | viability, T/C [20]: 1.39% | viability, T/C [21]: 1.75% | viability, T/C [22]: 1.29% | viability, T/C (second compound 0.0949 µM, first compound 0.00316 µM): 7.86% | viability, T/C (second compound 0.0949 µM, first compound 0.01 µM): 1.71% | viability, T/C [25]: 1.74% | viability, T/C [26]: 1.51% | viability, T/C [27]: 1.72% | viability, T/C [28]: 1.81% | viability, T/C (second compound 0.3 µM, first compound 0.00316 µM): 7.88% | viability, T/C (second compound 0.3 µM, first compound 0.01 µM): 1.67% | viability, T/C [31]: 1.78% | viability, T/C [32]: 1.28% | viability, T/C [33]: 1.59% | viability, T/C [34]: 1.54%
